Experimental data taken from patent publication US10259810B2, “N-sulfonylated pyrazolo[3,4-b]pyridin-6-carboxamides and method of use” (AbbVie S.à.r.l., priority 2015, dated 2019).
pEC50: −log10 of the molar value.

Columns and labels:
Type in all cases: cell-based
[1] = target: T1, CFTR ΔF508 (Homo sapiens, UniProt P13569, DEL508-508); test: Chronic TECC assay, primary bronchial epithelial cells of CF patients homozygous for CFTR ΔF508 (corrector, co-corrector and potentiator); settings: chronic TECC, AUC = full area under the curve upon forskolin stimulation; for % Activity at 1 μM (AUC**): test compound at 1 μM; for % Activity at 3 μM (AUC**): test compound at 3 μM; for EC50: read-out: EC50 (nM) (AUC**)
T1 construct: bronchial epithelial cells isolated from CF patients homozygous for the CFTR ΔF508 mutation; McGill University; Asterand; University of North Carolina hAEC-CF; host or cells: primary human bronchial epithelial cells from CF patients homozygous for ΔF508, differentiated at air-liquid interface
Summary of the method: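 Primary bronchial epithelial cells from ΔF508-homozygous CF patients on collagen IV-coated Transwells were chronically treated with test compound plus corrector and potentiator, which were re-added before recording. Ieq was derived from PD and Rt in NaCl-Ringer, pH 7.4, at 37° C, with apical amiloride and bilateral forskolin, recorded every 2 min over 20 min. Ieq increase was normalized to controls, and EC50 was taken from per-well concentrations.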

[2] = target: T2, ΔF508-CFTR (Homo sapiens, UniProt P13569, DEL508-508); test: CFTR cell surface levels using HRP-tagged ΔF508-CFTR expressing CFBE cells, in the presence of a co-corrector; settings: HRP-tagged ΔF508-CFTR CFBE cells, in the presence of 3 μM co-corrector; for pEC50: read-out: EC50
T2 construct: host or cells: CFBE41o-, doxycycline-inducible
Summary of the method: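 Chemiluminescent read-out of surface HRP (15 min, dark) after PBS washes. Activity is normalized as 100×(sample−DMSO)/(3 μM co-corrector alone−DMSO).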

[3] = target: T2, ΔF508-CFTR; test: CFTR cell surface levels using HRP-tagged ΔF508-CFTR expressing CFBE cells, intrinsic corrector capacity; parameters: % Activation: concentration or dose not given beside the values; settings: HRP-tagged ΔF508-CFTR expressing CFBE41o- cells, compound alone (intrinsic corrector capacity), 20 hours at 33° C.; for pEC50: read-out: EC50
Summary of the method: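 Read-out: chemiluminescent HRP activity of ECL4-HRP-tagged ΔF508-CFTR at the cell surface, 15 min substrate in dark. Normalized as 100×(sample−DMSO)/(positive control−DMSO).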

T2 sequence (P13569 with tags, fused parts or gaps DEL508-508): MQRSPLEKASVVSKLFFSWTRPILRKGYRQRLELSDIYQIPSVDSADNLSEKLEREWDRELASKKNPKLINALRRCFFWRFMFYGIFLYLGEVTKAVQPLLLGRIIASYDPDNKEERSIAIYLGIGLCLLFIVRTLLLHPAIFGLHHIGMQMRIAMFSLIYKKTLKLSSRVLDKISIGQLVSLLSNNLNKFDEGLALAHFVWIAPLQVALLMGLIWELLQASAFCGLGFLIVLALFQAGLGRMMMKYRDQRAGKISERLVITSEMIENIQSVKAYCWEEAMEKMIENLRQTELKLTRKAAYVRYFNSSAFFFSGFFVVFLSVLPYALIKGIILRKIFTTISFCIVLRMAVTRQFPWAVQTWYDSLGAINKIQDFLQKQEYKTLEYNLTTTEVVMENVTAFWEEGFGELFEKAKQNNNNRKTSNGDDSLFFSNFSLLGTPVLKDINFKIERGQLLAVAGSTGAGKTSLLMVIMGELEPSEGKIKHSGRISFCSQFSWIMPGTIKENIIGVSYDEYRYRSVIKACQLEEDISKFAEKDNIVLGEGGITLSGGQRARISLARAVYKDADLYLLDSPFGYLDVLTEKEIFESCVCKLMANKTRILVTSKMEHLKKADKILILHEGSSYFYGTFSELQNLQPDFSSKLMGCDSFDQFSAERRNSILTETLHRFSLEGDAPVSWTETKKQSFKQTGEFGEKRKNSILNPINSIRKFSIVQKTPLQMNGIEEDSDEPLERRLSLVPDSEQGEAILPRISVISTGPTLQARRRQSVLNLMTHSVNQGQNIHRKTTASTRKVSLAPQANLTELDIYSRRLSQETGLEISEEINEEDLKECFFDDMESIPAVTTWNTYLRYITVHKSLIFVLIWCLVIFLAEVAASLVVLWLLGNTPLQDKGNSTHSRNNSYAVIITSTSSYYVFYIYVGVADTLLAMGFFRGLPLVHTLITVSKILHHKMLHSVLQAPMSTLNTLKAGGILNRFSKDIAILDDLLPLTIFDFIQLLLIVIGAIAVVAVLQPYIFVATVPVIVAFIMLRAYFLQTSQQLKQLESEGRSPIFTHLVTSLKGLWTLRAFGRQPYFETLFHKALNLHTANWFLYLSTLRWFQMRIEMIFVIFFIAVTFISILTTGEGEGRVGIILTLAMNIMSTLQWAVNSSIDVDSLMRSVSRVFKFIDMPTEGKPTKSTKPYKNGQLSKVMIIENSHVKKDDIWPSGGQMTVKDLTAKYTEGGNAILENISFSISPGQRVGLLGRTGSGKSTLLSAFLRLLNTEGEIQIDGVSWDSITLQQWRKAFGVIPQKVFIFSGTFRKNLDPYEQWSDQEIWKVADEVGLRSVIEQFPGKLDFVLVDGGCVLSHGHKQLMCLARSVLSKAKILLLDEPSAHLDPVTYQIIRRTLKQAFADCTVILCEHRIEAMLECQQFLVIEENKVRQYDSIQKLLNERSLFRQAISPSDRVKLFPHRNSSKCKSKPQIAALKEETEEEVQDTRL
T1 sequence (P13569 with tags, fused parts or gaps DEL508-508): as above

Structure (SMILES)	% Activity at 1 μM (AUC**) [1]	% Activation [2]	pEC50 [2]	% Activation [3]	pEC50 [3]	% Activity at 3 μM (AUC**) [1]	EC50 [1]
CS(=O)(=O)NC(=O)c1cc(C2CCN(C3CCOCC3)CC2)c2c(C3CCC3)nn(-c3ccc(F)cc3)c2n1 [Compound 599, 3-cyclobutyl-1-(4-fluorophenyl)-N-(methanesulfonyl)-4-[1-(oxan-4-yl)piperidin-4-yl]-1H-pyrazolo[3,4-b]pyridine-6-carboxamide]	116.6667%	285.2%	6.57	88.94%	6.48		
CN(C)S(=O)(=O)NC(=O)c1cc(N2CCC(N3CCC(O)CC3)CC2)c2c(C3CCC3)nn(-c3ccc(F)cc3)c2n1 [Compound 605, 3-cyclobutyl-N-(dimethylsulfamoyl)-1-(4-fluorophenyl)-4-(4-hydroxy[1,4'-bipiperidin]-1'-yl)-1H-pyrazolo[3,4-b]pyridine-6-carboxamide]	726.6667%	395.8%	6.14	207.5%	6.50		
COCC1CCN(c2cc(C(=O)NS(=O)(=O)N3CCC(N4CCOCC4)C3)nc3c2c(C2CCC2)nn3-c2ccc(F)cc2)CC1 (stereo not drawn) [Compound 608, 3-cyclobutyl-1-(4-fluorophenyl)-4-[4-(methoxymethyl)piperidin-1-yl]-N-[3-(morpholin-4-yl)pyrrolidine-1-sulfonyl]-1H-pyrazolo[3,4-b]pyridine-6-carboxamide]		365.7%	7.26	194.67%	6.98	442.1916%	
COCC1CCN(c2cc(C(=O)NS(=O)(=O)N3CCN(C4CC4)CC3)nc3c2c(C2CCC2)nn3-c2ccc(F)cc2)CC1 [Compound 609, 3-cyclobutyl-N-(4-cyclopropylpiperazine-1-sulfonyl)-1-(4-fluorophenyl)-4-[4-(methoxymethyl)piperidin-1-yl]-1H-pyrazolo[3,4-b]pyridine-6-carboxamide]		414.2%	6.96	202.53%	6.60	306.6667%	
CC(C)N1CCC(c2cc(C(=O)NS(C)(=O)=O)nc3c2c(C2CCC2)nn3-c2ccc(F)cc2)CC1 [Compound 611, 3-cyclobutyl-1-(4-fluorophenyl)-N-(methanesulfonyl)-4-[1-(propan-2-yl)piperidin-4-yl]-1H-pyrazolo[3,4-b]pyridine-6-carboxamide]		236.7%	5.58	77.39%	5.48	176.7495%	
CN(C)S(=O)(=O)NC(=O)c1cc(N2CCC3(CC2)CCN(C2COC2)CC3)c2c(C3CCC3)nn(-c3ccc(F)cc3)c2n1 [Compound 614, 3-cyclobutyl-N-(dimethylsulfamoyl)-1-(4-fluorophenyl)-4-[9-(oxetan-3-yl)-3,9-diazaspiro[5.5]undecan-3-yl]-1H-pyrazolo[3,4-b]pyridine-6-carboxamide]		381.35%	6.77	172%	6.68	407.7118%	
CC(C)Oc1nccc(-n2nc(C3CCC3)c3c(N4CCC(N5CCOCC5)CC4)cc(C(=O)NS(=O)(=O)N(C)C)nc32)n1 [Compound 621, 3-cyclobutyl-N-(dimethylsulfamoyl)-4-[4-(morpholin-4-yl)piperidin-1-yl]-1-{2-[(propan-2-yl)oxy]pyrimidin-4-yl}-1H-pyrazolo[3,4-b]pyridine-6-carboxamide]		348.55%	7.11	160.45%	6.76	256.6667%	
CN(C)S(=O)(=O)NC(=O)c1cc(N2CCC(N3CCOCC3)CC2)c2c(C3CCC3)nn(-c3ccc4c(c3)OC(F)(F)O4)c2n1 [Compound 623, 3-cyclobutyl-1-(2,2-difluoro-2H-1,3-benzodioxol-5-yl)-N-(dimethylsulfamoyl)-4-[4-(morpholin-4-yl)piperidin-1-yl]-1H-pyrazolo[3,4-b]pyridine-6-carboxamide]		424.77%	7.25	238.53%	6.95	433.3333%	
CN1CCN(S(=O)(=O)NC(=O)c2cc(N3CCC(N4CCOCC4)CC3)c3c(C4CCC4)nn(-c4ccc(F)cc4)c3n2)CC1 [Compound 624, 3-cyclobutyl-1-(4-fluorophenyl)-N-(4-methylpiperazine-1-sulfonyl)-4-[4-(morpholin-4-yl)piperidin-1-yl]-1H-pyrazolo[3,4-b]pyridine-6-carboxamide]		274.15%	6.26	100.59%	5.92	310%	
CC(C)N1CCC2CN(c3cc(C(=O)NS(=O)(=O)N(C)C)nc4c3c(C3CCC3)nn4-c3ccc(F)cc3)CCC21 (stereo not drawn) [Compound 625, 3-cyclobutyl-N-(dimethylsulfamoyl)-1-(4-fluorophenyl)-4-[1-(propan-2-yl)octahydro-5H-pyrrolo[3,2-c]pyridin-5-yl]-1H-pyrazolo[3,4-b]pyridine-6-carboxamide]	403.3333%	353.87%	6.90	182.2%	6.65		
CN(C)S(=O)(=O)NC(=O)c1cc(N2CCC3C(CCN3C3CCC3)C2)c2c(C3CCC3)nn(-c3ccc(F)cc3)c2n1 (stereo not drawn) [Compound 626, 3-cyclobutyl-4-(1-cyclobutyloctahydro-5H-pyrrolo[3,2-c]pyridin-5-yl)-N-(dimethylsulfamoyl)-1-(4-fluorophenyl)-1H-pyrazolo[3,4-b]pyridine-6-carboxamide]		418.4%	6.95	206.6%	6.82	387.4854%	
CN(C)S(=O)(=O)NC(=O)c1cc(N2CCC3C(CCN3C3COC3)C2)c2c(C3CCC3)nn(-c3ccc(F)cc3)c2n1 (stereo not drawn) [Compound 627, 3-cyclobutyl-N-(dimethylsulfamoyl)-1-(4-fluorophenyl)-4-[1-(oxetan-3-yl)octahydro-5H-pyrrolo[3,2-c]pyridin-5-yl]-1H-pyrazolo[3,4-b]pyridine-6-carboxamide]		348.57%	7.61	162.47%	7.08	446.6667%	
CN(C)S(=O)(=O)NC(=O)c1cc(N2CCC3C(CCN3C3CCOCC3)C2)c2c(C3CCC3)nn(-c3ccc(F)cc3)c2n1 (stereo not drawn) [Compound 628, 3-cyclobutyl-N-(dimethylsulfamoyl)-1-(4-fluorophenyl)-4-[1-(oxan-4-yl)octahydro-5H-pyrrolo[3,2-c]pyridin-5-yl]-1H-pyrazolo[3,4-b]pyridine-6-carboxamide]		477.32%	6.88	283.25%	6.37	473.0586%	88.4 nM
CNS(=O)(=O)NC(=O)c1cc(N2CCC(N3CCC(OC)CC3)CC2)c2c(C3CCC3)nn(-c3ccc(F)cc3)c2n1 [Compound 629, 3-cyclobutyl-1-(4-fluorophenyl)-4-(4-methoxy[1,4'-bipiperidin]-1'-yl)-N-(methylsulfamoyl)-1H-pyrazolo[3,4-b]pyridine-6-carboxamide]		546.75%	6.57	337.34%	6.29	153.3918%	6.85 nM
COC1CCN(C2CCN(c3cc(C(=O)NS(N)(=O)=O)nc4c3c(C3CCC3)nn4-c3ccc(F)cc3)CC2)CC1 [Compound 630, 3-cyclobutyl-1-(4-fluorophenyl)-4-(4-methoxy[1,4'-bipiperidin]-1'-yl)-N-sulfamoyl-1H-pyrazolo[3,4-b]pyridine-6-carboxamide]	125.1944%	593.42%	6.43	339.64%	6.13		47.1 nM
